Measurements: US20250235501A1, “Methods and Compositions for Treating or Preventing Neurological Injury or Neurological Disorders” (University of Connecticut, priority 2024, published 2025)

Tested on: cultured cortical neurons
Experiment: OGD-induced Ca2+ overload and neuronal death, Fura-2 ratio Ca2+ imaging
Type: cell-based, mouse
Conditions: for OGD-mediated neuronal death: WT neurons, 10 μM overnight
Description: FIGS. 6C-6E show the effects of TAT-EE3 on Ca2+ overload and neuronal death caused by OGD. Cultured WT and gM2KO cortical neurons were treated with 10 μM TAT-SC and TAT-EE3 for overnight before experiments.
Mice pups at P0 were euthanized based on animal protocol. Whole brain was dissected out immediately and immersed in ice-cold Hank's Balanced Salt Solution (HBSS). Meninges were removed thoroughly, and tissue of different brain areas was taken based on purposes. Brain tissue was cut into small pieces and digested with 0.25% trypsin (Thermal Fisher Scientific, 15090-046) in HBSS at 37° C. for 20 min. Digestion solution was quickly removed, and tissue pellets are washed with Neurobasal® Medium (Thermal Fisher Scientific, 21103-049) for 3 times. Cells were resuspended with appropriate amount of Neurobasal® Medium supplemented with 2% B27® supplement (Thermal Fisher Scientific, 17504-044), 3% horse serum (Thermal Fisher Scientific, 16050114), 0.25% L-glutamine (Thermal Fisher Scientific, 25030-081) and 1% penicillin/streptomycin (Thermal Fisher Scientific, 15140-122). Isolated cells were counted and plated on coverslips pre-coated with poly-L-lysine (Sigma-Aldrich, P4707) at a density about 500×10^3 cells/cm2 for OGD and H2O2 treatment, and 100×10^3 cells/cm2 for current recording. Cytosine arabinoside (Sigma-Aldrich, C1768) was added to maintain a concentration at 1 μM to inhibit the proliferation of non-neuronal cells. 24 h after plating, culture medium was changed to Neurobasal® Medium supplemented with 2% B27® supplement, 0.25% L-glutamine and 1% penicillin/streptomycin. The concentration of Cytosine arabinoside (araC) was increased to 2 μM. Medium was changed every 3 days. OGD and H2O2 treatment was conducted at 7th day of culture, and current recording was conducted at 7th, 10th and 14th day of culture.
Oxygen-glucose deprivation (OGD) was achieved by replace the glucose in aCSF with sucrose, and 95% N2 and 5% CO2 was used to equilibrate sucrose-aCSF to displace oxygen. This condition typically yielded a pO2 of <5 mm Hg in the imaging chamber (Thompson, R. J., Zhou, N., and Mac Vicar, B. A. (2006). Ischemia opens neuronal gap junction hemichannels. Science 312, 924-27). At least 10 min was allowed for neurons to adapt to the change from culture medium to aCSF before OGD was applied.
Changes of intracellular Ca2+ was measured using ratio Ca2+ imaging as we describe previously (Du, J., Xie, J., Zhang, Z., Tsujikawa, H., Fusco, D., Silverman, D., Liang, B., and Yue, L. (2010). TRPM7-mediated Ca2+ signals confer fibrogenesis in human atrial fibrillation. Circulation research 106, 992-1003). In brief, Fura-2 AM (Thermal Fisher Scientific, F1221) was dissolved in DMSO to make a stock concentration at 1 mM. Pre-warmed Neurobasal® Medium (Thermal Fisher Scientific, 21103-049) was used to dilute Fura-2 AM to a working concentration at 2.5 μM, and 0.02% Pluronic™ F-127 (Thermal Fisher Scientific, P3000MP) was added to facilitate loading of Fura-2 AM. Cells plated on 25 mm glass coverslips were washed using pre-warmed PBS for 3 times, and then incubated with 2 ml of Fura-2 AM working solution for 30˜45 min at 37° C. […]
Ca2+ influx was measured by perfusing the cells with Tyrode's solution for transfected HEK293T cells or aCSF for neurons under different conditions. […] Fluorescence intensities at 510 nm with 340 nm and 380 nm excitation were collected at a rate of 1 Hz using CoolSNAP HQ2 (Photometrics) and data were analyzed using NIS-Elements (Nikon). […]

[1] = pretreatment 10 μM overnight, F340/380

## TAT-EE3: membrane permeable disrupting peptide, sequence YGRKKRRQRRREEDTDSSEEMLALAEE (SEQ ID NO: 4)
30 min OGD, WT without TAT-EE3 10.6%
  OGD-mediated neuronal death: 3.6%
60 min OGD, WT without TAT-EE3 47.6%
  OGD-mediated neuronal death: 9.9%
90 min OGD, WT without TAT-EE3 70.5%
  OGD-mediated neuronal death: 45.2%
[1]
  OGD-induced changes of intracellular Ca2+ in TRPM2-KO neurons: not in TRPM2-KO neurons
  OGD-induced changes of intracellular Ca2+ in WT neurons: significantly reduced
